In PMC13184981, “Discovery and Development of a Potent LIMK2 Isoform-Specific Degrader” (ACS Chemical Biology, 2026):

Key:
LIMK2 = LIMK2 (Homo sapiens, UniProt P53671); experiment: Western blot of endogenous LIMK2 in HuCCT1 cells; assay type: cell-based
Description: HuCCT1 cell line was cultured in Roswell Park Memorial Institute (RPMI) 1640 medium supplemented with GlutaMAX, 10% fetal bovine serum (FBS), and 1% penicillin/streptomycin. The cell line was maintained in an incubator with 5% CO2 at 37 °C. For the treatment, 3 × 10^5 cells were plated and treated with the compounds and DMSO as the control for 6 h. The cells were then lysed using RIPA buffer (50 mM Tris-HCl pH 7.4, 150 mM NaCl, 1% Triton X-100, 1% NaDOC, 0.1% SDS, 1 mM EDTA), freshly supplemented with protease and phosphatase inhibitor cocktails (Sigma-Aldrich, Darmstadt, Germany). After 1 h incubation on ice, the lysates were centrifuged for 30 min at […], and the protein-containing supernatant was collected. The protein concentrations were determined using Protein Assay Dye Reagent Concentrate (Bradford, Bio-Rad, Hercules, CA, USA) and Pre-Diluted Protein Assay Standards: Bovine Serum Albumin (BSA) Set (Thermo Fisher Scientific, Darmstadt, Germany). Then, equal amounts of protein was mixed with Roti-Load 1 dye (Carl Roth, Karlsruhe, Germany) and 4x Laemmli Buffer (Bio-Rad, Hercules, CA, USA), denatured at 95 °C, and run on NuPAGE 4–12% bis-Tris gels (Thermo Fisher Scientific). Proteins were blotted on methanol-activated PVDF Transfer Membranes (Thermo Fisher Scientific) using the wet transfer method with the transfer buffer (Thermo Fisher Scientific) and 20% methanol. Afterward, the membranes were blocked with 5% milk or 3% BSA in 0.1% TBS-T for 1 h at RT and incubated overnight at 4 °C with primary antibodies: GAPDH (catalog no. 2118, Cell Signaling Technology, MA, USA, 1:1000 dilution), LIMK1 (catalog no. 3842, Cell Signaling Technology, 1:1000 dilution), LIMK2 (catalog no. 3845, 1:500 dilution), phospho-Cofilin (catalog no. 3313, Cell Signaling Technology, 1:1000 dilution), Cofilin (catalog no. 5175, Cell Signaling Technology, 1:1000 dilution). Then, the membranes were washed with 0.1% TBS-T and incubated with secondary horseradish-peroxidase (HRP)-conjugated antibody for 2 h (catalog no. 7074, Cell Signaling Technology, 1:3000 dilution). The membranes were washed again with 0.1% TBS-T before they were developed using X-ray films (Fujifilm, Dusseldorf, Germany).

phospho-Cofilin (pCFL) = experiment: Western blot of phospho-cofilin in HuCCT1 cells; assay type: cell-based, human; details: HuCCT1, 6 h
Description: HuCCT1 cell line was cultured in Roswell Park Memorial Institute (RPMI) 1640 medium supplemented with GlutaMAX, 10% fetal bovine serum (FBS), and 1% penicillin/streptomycin. The cell line was maintained in an incubator with 5% CO2 at 37 °C. For the treatment, 3 × 10^5 cells were plated and treated with the compounds and DMSO as the control for 6 h. The cells were then lysed using RIPA buffer (50 mM Tris-HCl pH 7.4, 150 mM NaCl, 1% Triton X-100, 1% NaDOC, 0.1% SDS, 1 mM EDTA), freshly supplemented with protease and phosphatase inhibitor cocktails (Sigma-Aldrich, Darmstadt, Germany). After 1 h incubation on ice, the lysates were centrifuged for 30 min at […], and the protein-containing supernatant was collected. The protein concentrations were determined using Protein Assay Dye Reagent Concentrate (Bradford, Bio-Rad, Hercules, CA, USA) and Pre-Diluted Protein Assay Standards: Bovine Serum Albumin (BSA) Set (Thermo Fisher Scientific, Darmstadt, Germany). Then, equal amounts of protein was mixed with Roti-Load 1 dye (Carl Roth, Karlsruhe, Germany) and 4x Laemmli Buffer (Bio-Rad, Hercules, CA, USA), denatured at 95 °C, and run on NuPAGE 4–12% bis-Tris gels (Thermo Fisher Scientific). Proteins were blotted on methanol-activated PVDF Transfer Membranes (Thermo Fisher Scientific) using the wet transfer method with the transfer buffer (Thermo Fisher Scientific) and 20% methanol. […]

EGFP–LIMK2 = target: T1, EGFP–LIMK2 (Homo sapiens, UniProt P53671); experiment: EGFP-LIMK2 depletion live-cell assay (Incucyte); assay type: cell-based
T1 construct: P2A remnant (from EGFP-LIMK2-P2A-mCherry; that residues stay on LIMK2 after self-cleavage is own knowledge) (C); expressed in transfected cells; host or cells: HuCCT1 (lentiviral transduction, doxycycline-inducible pCW57 vector)
T1 sequence (P53671 whole entry): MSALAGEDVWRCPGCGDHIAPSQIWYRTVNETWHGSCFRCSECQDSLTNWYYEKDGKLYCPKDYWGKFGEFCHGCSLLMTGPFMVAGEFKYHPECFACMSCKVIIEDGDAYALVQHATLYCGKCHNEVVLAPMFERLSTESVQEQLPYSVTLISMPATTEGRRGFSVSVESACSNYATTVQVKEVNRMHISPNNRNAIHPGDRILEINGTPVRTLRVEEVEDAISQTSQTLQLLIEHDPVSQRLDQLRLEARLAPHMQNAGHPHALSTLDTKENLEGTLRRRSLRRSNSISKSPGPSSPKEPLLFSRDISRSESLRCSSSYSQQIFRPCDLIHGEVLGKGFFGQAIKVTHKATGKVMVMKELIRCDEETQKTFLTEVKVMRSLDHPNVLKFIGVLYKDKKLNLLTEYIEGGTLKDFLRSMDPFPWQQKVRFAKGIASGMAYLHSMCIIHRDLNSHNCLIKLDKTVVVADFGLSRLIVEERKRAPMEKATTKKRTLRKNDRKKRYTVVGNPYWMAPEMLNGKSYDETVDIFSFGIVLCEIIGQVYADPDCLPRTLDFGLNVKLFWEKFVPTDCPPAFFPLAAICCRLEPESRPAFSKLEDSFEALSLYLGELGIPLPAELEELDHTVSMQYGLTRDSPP

Sequence of LIMK2 (P53671 whole entry): as above

Cc1c(OCc2cn(CCCCC(=O)Nc3ncc(-c4cc(C(F)F)nn4-c4c(Cl)cccc4Cl)s3)nn2)cccc1N1CCC(=O)NC1=O [22b]
concentration giving near-complete depletion of endogenous LIMK2 (LIMK2; HuCCT1, 6 h, Western blot): 10 nM | LIMK2 degradation (Western blot) (LIMK2; HuCCT1, 6 h treatment): strong LIMK2-selective degradation | pCFL levels (Western blot) (phospho-Cofilin (pCFL)): no significant changes in pCFL | Dmax (EGFP–LIMK2; 0.01 nM PROTAC): 4.5% | Dmax (EGFP–LIMK2; 10000 nM PROTAC): 96.1%
